# In ChEMBL document CHEMBL1201862, “PubChem BioAssay data set” (2004):
#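 Dose response: 5 concentrations. Exposure: 48 h. Format: 96-well plates. Endpoint: linear interpolation; highest concentration if not reached. The concentration for 50% growth inhibition is given as GI50.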 Active and inactive are the calls of the source. No stated cut-off is given here; in the data, active = GI50 up to about 1.1 µM and inactive = higher.
# Key:
# Assay in all cases: DTP human tumour cell line panel, 48 h
# [1] = system: HCT-116
# [2] = system: RXF 393
# [3] = system: SR
# [4] = system: PC-3
# [5] = system: T47D
# [6] = system: IGROV-1
# [7] = system: NCI-H522
# [8] = system: MDA-MB-231
# [9] = system: MDA-N
# [10] = system: BT-549
# [11] = system: 786-0
# [12] = system: SNB-75
# [13] = system: SK-MEL-28
# [14] = system: DU-145
# [15] = system: MCF7
# [16] = system: MDA-MB-435
# [17] = system: NCI/ADR-RES
# [18] = system: Hs-578T
# [19] = system: NCI-H226
# [20] = system: KM-20L2
Structure (SMILES),GI50 [1],GI50 [2],GI50 [3],GI50 [4],GI50 [5],GI50 [6],GI50 [7],GI50 [8],GI50 [9],GI50 [10],GI50 [11],GI50 [12],GI50 [13],GI50 [14],GI50 [15],GI50 [16],GI50 [17],GI50 [18],GI50 [19],GI50 [20]
COC(=O)C1C(C(=O)OC)C1(Br)CBr (stereo not given),39.3 µM (inactive),19.1 µM (inactive),17.9 µM (inactive),> 100 µM (inactive),23.2 µM (inactive),30.5 µM (inactive),3.54 µM (inactive),87.5 µM (inactive),63.7 µM (inactive),33.1 µM (inactive),20.4 µM (inactive),> 100 µM (inactive),35.4 µM (inactive),> 100 µM (inactive),46.1 µM (inactive),60.5 µM (inactive),> 100 µM (inactive),89.1 µM (inactive),> 100 µM (inactive),–
O=C1CSC2(CC(/C=C/c3cccc([N+](=O)[O-])c3)=NN2c2cccc(S(=O)(=O)O)c2)N1c1nc2ccccc2s1 (stereo not given),32.6 µM (inactive),34.2 µM (inactive),19.6 µM (inactive),21.4 µM (inactive),24.6 µM (inactive),13.9 µM (inactive),18.3 µM (inactive),19.1 µM (inactive),25.1 µM (inactive),16.3 µM (inactive),18 µM (inactive),20 µM (inactive),57 µM (inactive),19.6 µM (inactive),17.6 µM (inactive),18.5 µM (inactive),22.5 µM (inactive),55.3 µM (inactive),25.4 µM (inactive),–
C[C@H]1COC2(c3ccccc3)CCC(=O)N12 (stereo not given in full),> 100 µM (inactive),> 100 µM (inactive),> 100 µM (inactive),–,–,> 100 µM (inactive),–,–,–,–,> 100 µM (inactive),> 100 µM (inactive),> 100 µM (inactive),–,–,–,–,–,–,> 100 µM (inactive)
Cc1ccc(S(=O)(=O)C2=Cc3ccc(C(F)(F)F)cc3C2(O)c2cccc(C(F)(F)F)c2)cc1 (stereo not given),1.58 µM (inactive),2.23 µM (inactive),2.43 µM (inactive),2.79 µM (inactive),3.1 µM (inactive),2.64 µM (inactive),1.66 µM (inactive),2.08 µM (inactive),2.38 µM (inactive),2.06 µM (inactive),1.93 µM (inactive),2.93 µM (inactive),1.9 µM (inactive),3.25 µM (inactive),2.3 µM (inactive),2.05 µM (inactive),2.71 µM (inactive),3.13 µM (inactive),2.15 µM (inactive),–
O=S(=O)(N/C(=N\O)Nc1ccc(Cl)cc1)c1ccccc1,10.7 µM (inactive),2.77 µM (inactive),1.15 µM (inactive),13.3 µM (inactive),2.74 µM (inactive),10.5 µM (inactive),1.03 µM (active),29.5 µM (inactive),3.9 µM (inactive),12.6 µM (inactive),1.87 µM (inactive),1.71 µM (inactive),10.9 µM (inactive),18.5 µM (inactive),12.6 µM (inactive),9.23 µM (inactive),12 µM (inactive),6.46 µM (inactive),33.7 µM (inactive),–
COc1cc2c3c(c4ccc(O)cc4c2cc1OC)[C@@H](O)[C@@H]1CCCN1C3,< 0.001 µM (active),0.00123 µM (active),< 0.001 µM (active),0.0019 µM (active),< 0.001 µM (active),< 0.001 µM (active),< 0.001 µM (active),< 0.001 µM (active),< 0.001 µM (active),0.00168 µM (active),< 0.001 µM (active),< 0.001 µM (active),< 0.001 µM (active),< 0.001 µM (active),< 0.001 µM (active),< 0.001 µM (active),0.00166 µM (active),< 0.001 µM (active),< 0.001 µM (active),–
N#C/C(=C\c1ccc(C(O)P(=O)(O)O)cc1)C(N)=O (stereo not given),76.9 µM (inactive),–,–,–,–,> 100 µM (inactive),> 100 µM (inactive),–,–,–,29.8 µM (inactive),–,> 100 µM (inactive),–,–,–,–,–,> 100 µM (inactive),> 100 µM (inactive)
